Laboratory results reported in patent US6099821A, “Nuclear scintigraphic assessment of mucosal function” (University of Virginia, priority 1999, dated 2000).
“Also recorded” adds a separate entry of the source.

What was measured:
jejunum of C3H mice = settings: mouse, in vivo, 2 mg/kg
Experimental: (§1) C3H female mice, 11-13 weeks of age, were used in this study.
(§2) The dynamic enteroscintigraphy with ^99m Tc-pertechnetate and the morphology studies were performed as described above in Example 1.

intestinal villi = format: in vivo, C3H mice; settings: 9-AC (4 mg/kg), 3.5 days
Experimental: (§3) At 3.5 days after irradiation with 4, 6, 8 and 12.5 Gy and immediately upon completion of the absorption study, groups of 4-5 mice per radiation dose were killed by cervical dislocation and a 2-cm length of jejunum was removed for histological preparation. Intestinal segments were fixed in 10% neutral buffered formalin. Four transverse sections of intestine were prepared embedded into paraffin, cut at a thickness of 4 μm and stained with hematoxylin and eosin (H&E). Slides with tissue sections were examined with light microscopy under 400-power magnification. A total of 500 crypt cells per mouse form 12-16 complete crypts were scored as mitotic or apoptotic. The jejunum microcolony assay of H. R. Withers et al., J. Rad. Biol., 17, 261 (1970) was used to quantify jejunal crypt survival. Tissue sections were scored microscopically using 100-power magnification. Surviving crypts contained at least 10 tightly packed columnar epithelial cells located in the base of the crypt (discrete cell microcolonies). The number of surviving crypts/circumference of jejunum was plotted as a function of radiation dose in Gy.
as §1, §2

jejunal mucosa [1] = format: in vivo, C3H mice; settings: 2 mg/kg 9-AC + 4 Gy TBI, day 3.5
Experimental: as §3, §1, §2

jejunal crypts = assay: Jejunal microcolony assay (surviving crypts); format: in vivo, C3H mice; settings: 3.5 days, vs control
Experimental: as §3, §1, §2

[2] = general statement; cited from earlier work
[3] = Toxicity of 9-aminocamptothecin; settings: single 2 mg/kg 9-AC intramuscular injection
[4] = system: intestine lumen / technetium pertechnetate active transport
[5] = system: intestine lumen / technetium pertechnetate active transport; settings: mouse, in vivo; cited from earlier work
mouse jejunal mucosa = assay: Dynamic enteroscintigraphy of jejunal absorption of ^99m TcO^-4 after total body irradiation; format: in vivo, C3Hf/Kam mice; settings: for effect of irradiation on intestinal absorption: 4, 6, 8 and 12.5 Gy TBI
Excerpt: The effect of irradiation on pertechnetate (^99m TcO^-4) absorption in the mouse jejunum was studied in situ following single acute total body irradiation (TBI) with 4 Gy, 6 Gy, 8 Gy, and 12.5 Gy. During irradiation, three unanesthetized mice were placed in a 20×20×3.5 cm air-ventilated plastic jig and exposed to a single-source ^60 Co irradiator (Theratron 780-C) at a dose rate of […], with open irradiation field and 71 cm SSD. This setting assured homogeneous dose distribution within ±3% error.
Four to five mice per irradiation dose of 4 Gy, 6 Gy, 8 Gy and 12.5 Gy per day after irradiation (6 Gy irradiated group) were studied for the intestinal absorption function. The mice were fasted overnight (waster ad libitum) and then anesthetized with 100 μL of 1.5 mg/g ketamine solution injected intraperitoneally. The procedure began with a short midline incision of the abdomen after onset of deep anesthesia, and a 3 cm segment of the upper jejunum was identified, ligated with cotton sutures and catheterized with 0.2 mm flexible plastic catheter.
Next, the abdomen incision was closed with cotton sutures and the mouse was positioned under the collimated detector so the 1.5 cm window of the collimator was viewed at the heart projection with 0.2 cm skin-to-collimator distance. A 100 μL physiologic solution containing 100 μCi of Na(^99m TcO4) was rapidly injected through the catheter into the proximal end of the isolated jejunal segment with complete filling of the entire segment.
The absorption rate of ^99m TcO^-4 from the site of injection into the circulation was recorded automatically by measuring the relative radioactivity build-up rate above the heart projection with the frequency of two measurements per second. The entire dynamic enteroscintigraphy procedure took about 15 minutes in control mice. The systemic absorption of the pertechnetate (^99m TcO^-4) was performed on a standard scintillation radiometer combined with a multichannel analyzer (Ludlum Measurements, Sweetwater, Tex.) to record the radiometry data in time-dependent fashion. The software ULTIMA-4 was used to receive the graphic imaging of the dynamic radiometry data.
Measured activity/time curves detected above the heart are mathematically modeled as exponential saturation of the form y(t)=y0+dy {1-exp[-k(t-t0)]}; where y(t) is the observed time-dependent radioactive counts above the heart; y0 is the observed activity at time of tracer introduction, t0; dy is the magnitude of the change in radioactive counts after tracer introduction; and k is the rate constant characteristic of the active transport of tracer through the intestinal wall into the systemic blood circulation. Analyses of tracer absorption kinetics by this expression allow precise statistical assessment of radiation-induced functional impairment of the jejunal active transport process.

[6] = literature, cited from earlier work
jejunal mucosa [7] = settings: intraluminal, after 12.5 Gy TBI
Experimental: To exclude a role of simple diffusion ("leakage") of the tracer through the irradiated GI mucosa studies of the intestinal permeability with ^67 Ga-citrate complex introduced into the jejunal lumen at 84 hours after exposure to 12.5 Gy were performed.
In order to evaluate if ^99m TcO^-4 absorption remains an active transport process in irradiated animals rather than passive diffusion or "leakage" phenomenon, studies were performed on irradiated gut permeability with ^67 Ga citrate complex.

jejunal mucosa [8] = settings: literature, cited from earlier work

In the case of `CC[C@@]1(O)C(=O)OCc2c1cc1n(c2=O)Cc2cc3c(N)cccc3nc2-1` [9-aminocamptothecin], the “mean rate of ^99m Tc-pertechnetate intestinal absorption” value (jejunum of C3H mice) is reported as “significantly delayed”, the “cell loss on the intestinal villi” value (intestinal villi) is reported as “maximal cell loss on the intestinal villi” and the “additive decrease in absorption vs number of apoptotic cells in the jejunal mucosa” value (jejunal mucosa [1]) is reported as “correlates well with the number of apoptotic cells in the jejunal mucosa”. For the same compound, the jejunal crypt survival (jejunal crypts; 9-AC (2 mg/kg) plus irradiation (4 Gy)) was “failed to show any difference in jejunal crypt survival”, the jejunal crypt survival (jejunal crypts; 9-AC alone (2 mg/kg)) was “failed to show any difference in jejunal crypt survival” and the GI toxicity [2] was “pronounced GI toxicity”. For the same compound, the “2 mg/kg intramuscular dose as fraction of LD10” value [3] was 1/2.
With `[131IH]` [^131 Iodine, iodine-131] the “shape of intestinal absorption curve / active transport kinetics” value ([4]; mouse, in vivo) was “same shape of the ^99m TcO^-4 intestinal absorption curve was obtained”.
For `[K+].[O-][Cl+3]([O-])([O-])[O-]` [KClO4, potassium perchlorate], the “shift of the saturation point on the radioactivity/time curve” value ([4]; mouse, in vivo) is given as “shifted the saturation point on the radioactivity/time curve to the right without changes in the amount of the absorbed tracer” and the “competitive inhibition of technetium pertechnetate active transport” value [5] is given as “known competitive inhibitor”.
With technetium pertechnetate [^99m TcO^-4] the “effect of irradiation on intestinal absorption” value (mouse jejunal mucosa) was “substantial dose-dependent decrease in the absorption function; also recorded: significantly decreases ^99m TcO^-4 jejunal absorption”, the “effect of irradiation on intestinal absorption” value (mouse jejunal mucosa; listed as 99m Technetium-pertechnetate) was “decreased in a dose-dependent fashion” and the “mean rate of the tracer absorption” value (mouse jejunal mucosa; 4 Gy TBI, 3.5 days after irradiation) was 1.51±0.15. For the same compound, the “time of minimal absorption after irradiation” value (mouse jejunal mucosa; 6 Gy TBI) was 3.5 days, the “time to return of absorption rate to a normal level” value (mouse jejunal mucosa; 6 Gy TBI) was “about 14 days” and the “effect of irradiation on absorption function at 24 hours” value (mouse jejunal mucosa; 6 Gy TBI, 24 hours after irradiation) was “significant decrease in the absorption function; also recorded: significant effect”. For the same compound, the “jejunal absorption, % of the control level” value (mouse jejunal mucosa; 12.5 Gy TBI, 3.5 days after irradiation, listed as 99m Technetium-pertechnetate) was ~25 % of the control level, the “correlation of decrease in absorption with cells per villus and irradiation dose” value (mouse jejunal mucosa; 3.5 days after 4 to 12.5 Gy) was “correlated with the numbers of cells per villus and the irradiation dose” and the “mean rate of the tracer absorption” value (mouse jejunal mucosa; control (no irradiation)) was 1.35±0.25. The “time of maximal reduction of absorption” value (mouse jejunal mucosa; independently of TBI doses used) was 84 h, the “intestinal absorption into the bloodstream” value ([4]; control mice) was “Rapid absorption” and the metabolic activity [6] was “low metabolic activity”. For the same compound, the radiotoxicity [6] was “one of the least radiotoxic nuclides”, the γ-emission energy [6] was 140 keV and the half-life ([6]; radionuclide) was 6 h.
For `O=C([O-])CC(O)(CC(=O)[O-])C(=O)[O-].[67Ga+3]` [^67 Ga-citrate], the jejunal mucosa permeability (jejunal mucosa [7]) is listed as “jejunal mucosa stays impermeable”, the “accumulation in the sites of lesion” value (jejunal mucosa [8]; inflammation or local hyperthermia) is listed as “augments ^67 Ga-citrate accumulation in the sites of lesion” and the “crossing of the intestinal epithelial barrier” value (jejunal mucosa [8]; normal) is listed as “normally does not cross the intestinal epithelial barrier”.
